Measured values as given in US20060223780A1, “Method for administration of capecitabine” (priority 2005, published 2006).

Key:
[1] = approved dose and schedule of capecitabine; cited from earlier work
tumor [2] = experiment: Experiment 2: schedules at the same daily dosages (survival, tumor volume, body weight); assay type: in vivo
Source text: Following is the design of the final experiment with the schedules and dosages used (Table 2): […]

MX-1 = settings: cited from earlier work
tumor [3] = experiment: Experiment 2 data: Gompertzian growth / drug effect (DE) population modelling with NONMEM; assay type: in vivo; settings: for time of maximal DE after start of treatment, average / time of maximal DE after start of treatment, range: individual data; for time of maximal drug effect (DE) after start of treatment / Day on which the drug effect (DE) is maximal, F'(x)≈0: pooled data; for Day on which the drug effect (DE) is maximal, F'(x)≈0: start of treatment day 17
Method: Therefore, the data were then analyzed for the approved (14/7) chemotherapy drug schedule by measuring at each time point after the initiation of therapy the ratio of the (data-derived) expected Gompertzian growth rate in the unperturbed (control) state compared with that observed in the treated state. Curve-fitting was performed by non-linear mixed-effect population modeling using NONMEM software.
The Analysis performed used a non-linear mixed effects population modelling approach with the NONMEM software:
A) with the Gompertzian growth model (TV: tumor volume): • dTV/dt=α*TV−((α/log(TVinf))*TV*log(TV))
B) and the drug effect (DE) model • dTV/dt=α*TV−((α/log(TVinf)*TV*log(TV))*(1−DE)

MAXF 401 = settings: cited from earlier work
[4] = Schedule C (2 d on, 5 d off), even at the lowest daily dosages
[5] = non toxic doses, compared between schedules, p.o.

CCCCCOC(=O)Nc1nc(=O)n([C@@H]2O[C@H](C)[C@@H](O)[C@H]2O)cc1F [capecitabine, 5′-deoxy-5-fluoro-N-[(pentyloxy)-carbonyl]-cytidine]
median time to onset of hand-foot syndrome [1]: about 79 days | toxicity (tumor [2]; higher 2 dose levels, 14 days of treatment compared to shorter treatment durations (dose comparison, Tables 4-1, 4-2)): increased levels of toxicity | safety profile (tumor [2]; higher daily dosage, reduced number of treatment days, reintroduced after a rest period): same or a better safety profile | toxicity (tumor [2]; higher dose levels 24, 14 days of treatment compared to shorter treatment durations (schedule comparison, Tables 5-1, 5-2)): increased levels of toxicity | survival curves (tumor [2]; lower 2 dose ranges, 14 days on/7 days off vs 7 days on/7 days off): similar | efficacy (tumor volume), schedule comparison at the same daily dosages (tumor [2]; lowest dose level): advantage in efficacy towards the 14 days on/7 days off schedule | efficacy (tumor [2]; schedules with a fewer number of treatment days, at higher dose levels): higher efficacy | tumor volume reduction (tumor [2]; two lowest dose levels, 14 days on/7 days off vs 7 days on/7 days off): similar | toxicity (death of mice) (MX-1; [4]): most of the mice died | antitumor efficacy (tumor growth inhibition after 6 weeks of treatment) (MX-1; [5]): equivalent | time of maximal DE after start of treatment, average (tumor [3]; 1.5 mmol/kg/day): 8.3 days | time of maximal DE after start of treatment, range (tumor [3]; 1.5 mmol/kg/day): 6 to 11 days | time of maximal drug effect (DE) after start of treatment (tumor [3]; 1.5 mmol/kg/day): 10 days | Day on which the drug effect (DE) is maximal, F'(x)≈0 (tumor [3]; 1.5 mmol/kg/day): 27 | time of maximal DE after start of treatment, average (tumor [3]; 2.25 mmol/kg/day): 10.1 days | time of maximal DE after start of treatment, range (tumor [3]; 2.25 mmol/kg/day): 5 to 18 days | time of maximal drug effect (DE) after start of treatment (tumor [3]; 2.25 mmol/kg/day): 8 days | Day on which the drug effect (DE) is maximal, F'(x)≈0 (tumor [3]; 2.25 mmol/kg/day): 25 | time point of maximum impact of treatment (averages), into therapy (tumor [3]; all dose levels analyzed, 14/7 schedule): 8.3 to 10.1 days | toxicity (death of mice) (MAXF 401; [4]): most of the mice died | antitumor efficacy (tumor growth inhibition after 6 weeks of treatment) (MAXF 401; [5]): equivalent
